Reference: PMC10126473 (Frontiers in Pharmacology, 2023)

Legend:
[1] = Mouse PK and tissue distribution study (non-compartmental analysis); conditions: mice; for Tmax / half-life: male, C57BL/6, mouse, in vivo, po; for Tmax: Tmax Obs; for half-life: t1/2 Obs
Procedure: The in-life study (Animal Study Protocol Number: NIH ORS-51) was conducted at the NIH Animal Facility by the Division of Veterinary Resources (DVR, Bethesda, MD). In this study, 25–35 g male C57BL/6 mice (Charles River Laboratories, Frederick, MD) were used. For the IV groups, 66 mice (33 mice per dosing group, 3 mice per timepoint) were used for a single bolus IV dose of 3 or 10 mg/kg of PDN via tail vein injection. […] The IV and PO doses were selected to obtain a complete concentration profile in plasma and tissues, based on a preliminary study. Animals were not fasted in this study. […] All dosing solutions were freshly prepared on the day of dosing. At designated time points, blood samples were collected, and mice were euthanized with CO2 in accordance with NIH ARAC Guidelines after blood collection. The death was ensured by cervical dislocation or transthoracic puncture. Lung, liver, adipose, brain, heart, small intestine, kidney, skeletal muscle, and spleen samples were obtained from mice. […] Tissue samples were rinsed with cold saline, dried on filtrate paper, weighed, and snap frozen by placing into dry ice after collection. All samples were stored at −80°C until the analysis. All blood samples were collected in K2EDTA tubes and centrifuged at 3000 g for 10 min at 4°C to obtain plasma. Plasma samples were transferred to tubes preloaded with NaF (final concentration at 5 mM in 200 µL plasma) and stored at −80°C until analysis.
For fat tissue, an additional 3-fold volume of acetonitrile was added to the water homogenate and was vortexed in a shaker for another 30 min.
A 10 μ aliquot of samples, blank controls (blank plasma or tissue homogenates), quality controls (QC), and standards were added into 200 μ acetonitrile solution with 100 ng/mL tolbutamide (internal standard, IS). All samples were then thoroughly shaken for 5 min to precipitate proteins. The samples were centrifuged at 3000 rpm and 4°C for 30 min. The supernatant was injected for UPLC-MS/MS analysis.
The mobile phase consisted of 0.1% formic acid in water (A) and 0.1% formic acid in acetonitrile (B), the flow rate was 600 μL/min. […] All analyses were carried out using a Waters Acquity I-Class UPLC interfaced with a Waters Xevo TQ-S mass spectrometer. The mass spectrometer multiple reaction monitoring (MRM) experiment was operated with an ESI source at negative mode with spray voltage of 1 kV, and temperature of 600°C. Both Q1 and Q3 were set at unit resolution. […] The correlation coefficients of the calibration curves were all greater than 0.99. […] The linear range, precision and accuracy of QCs in various tissues and plasma are shown in Supplementary Table S1 and Supplementary Table S2.
The area under the concentration vs. time curve (AUC) was calculated using the linear trapezoidal method. The terminal rate constant (λ) was obtained from the slope of at least three data points of the apparent terminal phase of the log linear concentration vs. time curve. AUC0–∞ was estimated as the sum of the AUC0–t (where t is the time of the last measurable concentration) and Ct/λ. […] Bioavailability (F) was calculated using ratios of dose-normalized AUC of PO and IV administration.

[2] = Metabolic stability and biotransformation in liver microsomes; conditions: for Liver Vmax: in vitro
Procedure: The incubation was carried out at 37°C for 15, 30, and 60 min. The reaction in plasma or liver microsomes was quenched by adding 200 μL of cold acetonitrile (containing 100 ng/mL tolbutamide as internal standard).
The mc was the microsome concentration used in the incubation (0.5 mg/mL). The substrate disappearance half-life (t1/2) was estimated by regression analysis of the semi-logarithmic (ln Conc vs. time) plots. […] The Vmax, in vitro,app, PDN-total and Km for PDN depletion in liver microsomes were estimated by the Michaelis-Menten model using GraphPad Prism version 8.

[3] = 10 mg/kg, PO 10 mg/kg PDN, kidney
[4] = 10 mg/kg, PO 10 mg/kg PDN, liver
[5] = 10 mg/kg, PO 10 mg/kg PDN, lung
[6] = 10 mg/kg, PO 10 mg/kg PDN, muscle
[7] = 10 mg/kg, PO 10 mg/kg PDN, plasma
[8] = 10 mg/kg, PO 10 mg/kg PDN, spleen

Compound: O=C(Nc1ccc([N+](=O)[O-])cc1Cl)c1cc(Cl)ccc1OC(=O)N1CCNCC1 [PDN]
- Tmax [1, 3]: 1.5 h
- Tmax [1, 4]: 1.5 h
- Tmax [1, 5]: 1.5 h
- Tmax [1, 6]: 1.5 h
- Tmax [1, 7]: 1.5 h
- Tmax [1, 8]: 1.5 h
- half-life ([1]; 10 mg/kg, PO 10 mg/kg PDN, adipose): 3.48 h
- half-life ([1]; 10 mg/kg, PO 10 mg/kg PDN, brain): 2.45 h
- half-life ([1]; 10 mg/kg, PO 10 mg/kg PDN, heart): 2.16 h
- half-life ([1]; 10 mg/kg, PO 10 mg/kg PDN, intestine): 1.79 h
- half-life [1, 3]: 2.99 h
- half-life [1, 4]: 2.36 h
- half-life [1, 5]: 3.29 h
- half-life [1, 6]: 2.83 h
- half-life [1, 7]: ~3.2 h
- half-life [1, 8]: 3.16 h
- AUC0-∞ Obs ([1]; IV 3 mg/kg PDN, adipose): 990 (169) h*ng/g
- AUC0-∞ Obs ([1]; IV 3 mg/kg PDN, brain): 1024 (124) h*ng/g
- AUC0-∞ Obs ([1]; IV 3 mg/kg PDN, heart): 5676 (481) h*ng/g
- AUC0-∞ Obs ([1]; IV 3 mg/kg PDN, intestine): 3222 (749) h*ng/g
- AUC0-∞ Obs ([1]; IV 3 mg/kg PDN, kidney): 9833 (1080) h*ng/g
- AUC0-∞ Obs ([1]; IV 3 mg/kg PDN, lung): 53071 (4993) h*ng/g
- AUC0-∞ Obs ([1]; IV 3 mg/kg PDN, muscle): 1828 (221) h*ng/g
- AUC0-∞ Obs ([1]; IV 3 mg/kg PDN, spleen): 16808 (1242) h*ng/g
- AUC0-∞ Obs ([1]; IV 10 mg/kg PDN, brain): 5622 (1331) h*ng/g
- AUC0-∞ Obs ([1]; IV 10 mg/kg PDN, heart): 31647 (6073) h*ng/g
- AUC0-∞ Obs ([1]; IV 10 mg/kg PDN, intestine): 14586 (1295) h*ng/g
- AUC0-∞ Obs ([1]; IV 10 mg/kg PDN, kidney): 62371 (6713) h*ng/g
- AUC0-∞ Obs ([1]; IV 10 mg/kg PDN, liver): 883 (323) h*ng/g
- AUC0-∞ Obs ([1]; IV 10 mg/kg PDN, lung): 173216 (21722) h*ng/g
- AUC0-∞ Obs ([1]; IV 10 mg/kg PDN, muscle): 10301 (2999) h*ng/g
- AUC0-∞ Obs ([1]; IV 10 mg/kg PDN, spleen): 63505 (10129) h*ng/g
- AUC0-∞ Obs ([1]; PO 10 mg/kg PDN, adipose): 2788 (299) h*ng/g
- AUC0-∞ Obs ([1]; PO 10 mg/kg PDN, brain): 2741 (488) h*ng/g
- AUC0-∞ Obs ([1]; PO 10 mg/kg PDN, heart): 10680 (1787) h*ng/g
- AUC0-∞ Obs ([1]; PO 10 mg/kg PDN, intestine): 37739 (6003) h*ng/g
- AUC0-∞ Obs ([1]; PO 10 mg/kg PDN, kidney): 40372 (8592) h*ng/g
- AUC0-∞ Obs ([1]; PO 10 mg/kg PDN, liver): 591 (176) h*ng/g
- AUC0-∞ Obs ([1]; PO 10 mg/kg PDN, lung): 123875 (23366) h*ng/g
- AUC0-∞ Obs ([1]; PO 10 mg/kg PDN, muscle): 4005 (814) h*ng/g
- AUC0-∞ Obs ([1]; PO 10 mg/kg PDN, spleen): 45737 (9727) h*ng/g
- F (bioavailability) Obs ([1]; PO 10 mg/kg PDN, 10 mg/kg): 85.8%
- Liver Vmax ([2]; conversion to Nc, hamster): 0.0085 mg/s/mg microsomes
- Gut Vmax ([2]; conversion to Nc, hamster, in vitro (in vitro liver parameters)): 0.0085 mg/s/mg microsomes
- Liver Vmax ([2]; conversion to Others, hamster): 0.1059 mg/s/mg microsomes
- Vmax in vitro,app, PDN-total ([2]; hamster liver microsomes): 1.238 ± 0.133 nmol/min/mg
- Km ([2]; hamster, pH 7.4): 10.8 ± 3.04 µM
